The values that follow come from patent publication US9314509B2, “Pharmaceutical compositions of melanocortin receptor ligands” (Ipsen Pharma S.A.S., priority 2009, dated 2016).

The series is described as follows: Solubility of pamoate salt, HPLC determination of concentration in supernatant. It counts as physicochemical. The procedure: The solubility of pamoate salt of Example 1 was determined by mixing the peptide in water or PBS, followed by HPLC determination of the concentration in the supernatant, and the results are shown in Table 4B.

Structures can show the parent of a compound that is named as a salt. Where two headings read alike, the source gives them in different places.

Take `CC(=O)N[C@@H](CCCNC(=N)N)C(=O)N[C@H]1CSSC[C@@H](C(N)=O)NC(=O)[C@H](Cc2c[nH]c3ccccc23)NC(=O)[C@H](CCCNC(=N)N)NC(=O)[C@@H](Cc2ccccc2)NC(=O)[C@H](Cc2c[nH]cn2)NC(=O)[C@@H](C)NC1=O` [Pamoate salt of Example 1 with Zn]: the solubility reads like this: (PBS, pH 7.4, read-out: Solubility in PBS, pH 7.4) 120 µg/mL; (Water, pH 7.0, read-out: Solubility in Water, pH 7.0) 50 µg/mL.
